Data reported in ChEMBL document CHEMBL6078643, “Palladium-Mediated Bioorthogonal System for Prodrug Activation of N-Benzylbenzamide-Containing Tubulin Polymerization Inhibitors for the Treatment of Solid Tumors” (J Med Chem, 2024).
Calls of active or inactive are those of the source. The rule behind the calls is not given here.

Tests used:
[1] = Toxicity in Balb/c mouse xenografted with human HepG2 cells assessed as effect on heart at 20 mg/kg, iv administered daily in presence of palladium resins for 14 days by H and E staining based analysis; assay type: organism-based; settings: in vivo, 336 h, time 14 day
K562 [2] = assay: Induction of cell cycle arrest in human K562 cells assessed as accumulation of cells at G2/M phase at 80 nM incubated for 72 hrs by PI staining based flow cytometric analysis ( Rvb = 8.5 %); assay type: functional
Tubulin (Homo sapiens) [3] = target: T1, Tubulin (Homo sapiens) (UniProt P68371+Q9H4B7+P0DPH7+P68366+Q13509+Q71U36+P04350+Q3ZCM7+P07437+P68363+Q9BQE3+Q6PEY2+Q13885+Q9BVA1+Q9BUF5); assay: In vivo inhibition of tubulin polymerization in human HepG2 cells xenografted in Balb/c mouse assessed as decrease in alpha tubulin expression at 20 mg/kg, iv administered daily for 14 days in presence of palladium resins incubated for 24 hrs by Western blot analysis; assay type: functional, organism-based; settings: time 14.0 day
K562 [4] = assay: Induction of apoptosis in human K562 cells assessed as late apoptotic cells at 80 nM incubated for 72 hrs in presence of palladium resins by Annexin V-APC staining based flow cytometric analysis (reference value: 1.36%); assay type: functional
Tubulin (Homo sapiens) [5] = target: T1, Tubulin (Homo sapiens); assay: Inhibition of tubulin polymerization in human HepG2 cells assessed as decrease in polymerized alpha tubulin level at 80 nM incubated for 24 hrs in presence of palladium resins by Western blotting analysis; assay type: cell-based
K562 [6] = assay: Induction of apoptosis in human K562 cells assessed as viable cells at 80 nM incubated for 72 hrs by Annexin V-APC staining based flow cytometric analysis (reference value: 94.21%); assay type: functional; settings: read-out: Activity
Tubulin (Homo sapiens) [7] = target: T1, Tubulin (Homo sapiens); assay: In vivo inhibition of tubulin polymerization in human HepG2 cells xenografted in Balb/c mouse assessed as decrease in beta tubulin expression at 20 mg/kg, iv administered daily for 14 days in presence of palladium resins incubated for 24 hrs by Western blot analysis; assay type: functional, organism-based; settings: time 14.0 day
Tubulin (Homo sapiens) [8] = target: T1, Tubulin (Homo sapiens); assay: Inhibition of tubulin polymerization in human K562 cells assessed as decrease in alpha tubulin expression at 80 nM incubated for 24 hrs in presence of palladium resins by Western blotting analysis; assay type: cell-based
K562 [9] = assay: Select factor, ratio of test compound IC50 to 5-fluoro-N-(3-hydroxy-4-methoxybenzyl)-2-morpholinobenzamide IC50 for antiproliferative activity against human K562 cells assessed as reduction in cell viability incubated for 72 hrs by CCK-8 assay; assay type: functional
K562 [10] = assay: Antiproliferative activity against human K562 cells assessed as reduction in cell viability incubated for 72 hrs by CCK-8 assay; assay type: functional, cell-based; settings: K562, 72 h
K562 [11] = assay: Induction of apoptosis in human K562 cells assessed as early apoptotic cells at 80 nM incubated for 72 hrs in presence of palladium resins by Annexin V-APC staining based flow cytometric analysis (reference value: 2.78%); assay type: functional
K562 [12] = assay: Induction of cell cycle arrest in human K562 cells assessed as accumulation of cells at G2/M phase at 80 nM incubated for 72 hrs in presence of palladium resins by PI staining based flow cytometric analysis ( Rvb = 8.5 %); assay type: functional
[13] = Toxicity in Balb/c mouse xenografted with human HepG2 cells assessed as effect on liver at 20 mg/kg, iv administered daily in presence of palladium resins for 14 days by H and E staining based analysis; assay type: organism-based; settings: in vivo, 336 h, time 14 day
K562 [14] = assay: Induction of apoptosis in human K562 cells assessed as late apoptotic cells at 80 nM incubated for 72 hrs by Annexin V-APC staining based flow cytometric analysis (reference value: 1.36%); assay type: functional
H22 [15] = assay: Antiproliferative activity against mouse H22 cells assessed as reduction in cell viability incubated for 72 hrs by CCK-8 assay; assay type: functional, cell-based; settings: H22, 72 h
[16] = Select factor, ratio of test compound IC50 to 5-fluoro-N-(3-hydroxy-4-methoxybenzyl)-2-morpholinobenzamide IC50 for antiproliferative activity against human THLE-2 cells assessed as reduction in cell viability incubated for 72 hrs by CCK-8 assay; assay type: toxicity, cell-based; settings: read-out: Ratio IC50
Tubulin (Homo sapiens) [17] = target: T1, Tubulin (Homo sapiens); assay: Inhibition of tubulin polymerization in human HepG2 cells assessed as decrease in beta tubulin expression at 80 nM incubated for 24 hrs in presence of palladium resins by Western blotting analysis; assay type: cell-based
K562 [18] = assay: Induction of cell cycle arrest in human K562 cells assessed as accumulation of cells at G2 phase at 80 nM incubated for 72 hrs by PI staining based flow cytometric analysis ( Rvb = 8.5 %); assay type: functional
K562 [19] = assay: Induction of ROS generation in human K562 cells assessed as increase in DCF-positive cells incubated for 72 hrs by DCF-DA staining based flow cytometric analysis (reference value: 7.67%); assay type: functional
K562 [20] = assay: Induction of apoptosis in human K562 cells assessed as chromatin condensation at 80 nM incubated for 72 hrs in presence of palladium resins by Hoechst 33342 staining based fluorescent microscopic analysis; assay type: functional, cell-based
HepG2 [21] = assay: Antitumor activity against human HepG2 cells xenografted in Balb/c mouse assessed as tumor growth inhibition at 20 mg/kg, iv administered daily in presence of palladium resins for 14 days relative to control; assay type: functional; settings: HepG2, 336 h, time 14 day
[22] = Toxicity in Balb/c mouse xenografted with human HepG2 cells assessed as effect on spleen at 20 mg/kg, iv administered daily in presence of palladium resins for 14 days by H and E staining based analysis; assay type: organism-based; settings: in vivo, 336 h, time 14 day
[23] = Toxicity in Balb/c mouse xenografted with human HepG2 cells assessed as effect on lung at 20 mg/kg, iv administered daily in presence of palladium resins for 14 days by H and E staining based analysis; assay type: organism-based; settings: in vivo, 336 h, time 14 day
Tubulin (Homo sapiens) [24] = target: T1, Tubulin (Homo sapiens); assay: Disruption of microtubule organization in human K562 cells at 80 nM incubated for 72 hrs in presence of palladium resins by DAPI staining based confocal microscopic analysis; assay type: cell-based
HepG2 [25] = assay: Select factor, ratio of test compound IC50 to 5-fluoro-N-(3-hydroxy-4-methoxybenzyl)-2-morpholinobenzamide IC50 for antiproliferative activity against human HepG2 cells assessed as reduction in cell viability incubated for 72 hrs by CCK-8 assay; assay type: functional
[26] = Toxicity in Balb/c mouse xenografted with human HepG2 cells assessed as effect on kidney at 20 mg/kg, iv administered daily in presence of palladium resins for 14 days by H and E staining based analysis; assay type: organism-based; settings: in vivo, 336 h, time 14 day
K562 [27] = assay: Induction of cell cycle arrest in human K562 cells assessed as accumulation of cells at S phase at 80 nM incubated for 72 hrs in presence of palladium resins by PI staining based flow cytometric analysis ( Rvb = 14.04 %); assay type: functional
HepG2 [28] = assay: Antiproliferative activity against human HepG2 cells assessed as reduction in cell viability incubated for 72 hrs by CCK-8 assay; assay type: functional, cell-based; settings: HepG2, 72 h
H22 [29] = assay: Select factor, ratio of test compound IC50 to 5-fluoro-N-(3-hydroxy-4-methoxybenzyl)-2-morpholinobenzamide IC50 for antiproliferative activity against mouse H22 cells assessed as reduction in cell viability incubated for 72 hrs by CCK-8 assay; assay type: functional
[30] = target: Bcr/Abl fusion protein (Homo sapiens) (UniProt P00519+P11274); assay: Inhibition of Bcr-Abl in human K562 cells at 80 nM incubated for 24 hrs in presence of palladium resins by Western blotting analysis; assay type: cell-based
Sequence of Bcr/Abl fusion protein (Homo sapiens) (P00519 whole entry, looked up, the tested form may be a part): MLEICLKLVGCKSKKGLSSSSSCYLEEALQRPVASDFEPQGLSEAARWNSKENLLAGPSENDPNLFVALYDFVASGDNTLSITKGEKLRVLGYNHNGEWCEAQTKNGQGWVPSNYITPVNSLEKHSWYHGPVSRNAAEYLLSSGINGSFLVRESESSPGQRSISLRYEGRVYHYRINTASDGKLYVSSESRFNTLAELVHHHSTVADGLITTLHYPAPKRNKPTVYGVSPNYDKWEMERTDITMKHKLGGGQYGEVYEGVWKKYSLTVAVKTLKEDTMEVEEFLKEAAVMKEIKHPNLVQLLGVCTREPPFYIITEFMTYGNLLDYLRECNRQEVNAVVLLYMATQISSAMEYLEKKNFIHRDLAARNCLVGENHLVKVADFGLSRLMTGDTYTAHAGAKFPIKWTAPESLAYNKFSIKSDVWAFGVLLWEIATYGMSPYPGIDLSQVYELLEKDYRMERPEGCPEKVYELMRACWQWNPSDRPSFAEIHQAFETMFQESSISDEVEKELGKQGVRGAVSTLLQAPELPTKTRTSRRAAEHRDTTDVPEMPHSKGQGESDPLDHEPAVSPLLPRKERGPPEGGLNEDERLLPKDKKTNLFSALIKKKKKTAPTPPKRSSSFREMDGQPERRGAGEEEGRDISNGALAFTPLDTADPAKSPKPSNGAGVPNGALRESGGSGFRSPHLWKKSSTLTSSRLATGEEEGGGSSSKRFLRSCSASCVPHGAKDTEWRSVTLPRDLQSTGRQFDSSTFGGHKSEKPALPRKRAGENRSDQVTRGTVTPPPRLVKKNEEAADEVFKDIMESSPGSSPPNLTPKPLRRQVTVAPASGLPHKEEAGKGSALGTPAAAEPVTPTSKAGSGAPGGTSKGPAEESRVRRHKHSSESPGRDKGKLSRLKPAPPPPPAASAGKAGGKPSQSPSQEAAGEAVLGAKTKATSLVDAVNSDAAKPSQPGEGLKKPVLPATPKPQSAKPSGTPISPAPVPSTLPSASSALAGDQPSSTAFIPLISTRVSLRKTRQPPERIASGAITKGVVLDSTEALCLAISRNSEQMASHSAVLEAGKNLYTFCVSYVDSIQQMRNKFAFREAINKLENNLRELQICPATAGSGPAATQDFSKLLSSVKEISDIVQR
Sequence of Bcr/Abl fusion protein (Homo sapiens) (P11274 whole entry, looked up, the tested form may be a part): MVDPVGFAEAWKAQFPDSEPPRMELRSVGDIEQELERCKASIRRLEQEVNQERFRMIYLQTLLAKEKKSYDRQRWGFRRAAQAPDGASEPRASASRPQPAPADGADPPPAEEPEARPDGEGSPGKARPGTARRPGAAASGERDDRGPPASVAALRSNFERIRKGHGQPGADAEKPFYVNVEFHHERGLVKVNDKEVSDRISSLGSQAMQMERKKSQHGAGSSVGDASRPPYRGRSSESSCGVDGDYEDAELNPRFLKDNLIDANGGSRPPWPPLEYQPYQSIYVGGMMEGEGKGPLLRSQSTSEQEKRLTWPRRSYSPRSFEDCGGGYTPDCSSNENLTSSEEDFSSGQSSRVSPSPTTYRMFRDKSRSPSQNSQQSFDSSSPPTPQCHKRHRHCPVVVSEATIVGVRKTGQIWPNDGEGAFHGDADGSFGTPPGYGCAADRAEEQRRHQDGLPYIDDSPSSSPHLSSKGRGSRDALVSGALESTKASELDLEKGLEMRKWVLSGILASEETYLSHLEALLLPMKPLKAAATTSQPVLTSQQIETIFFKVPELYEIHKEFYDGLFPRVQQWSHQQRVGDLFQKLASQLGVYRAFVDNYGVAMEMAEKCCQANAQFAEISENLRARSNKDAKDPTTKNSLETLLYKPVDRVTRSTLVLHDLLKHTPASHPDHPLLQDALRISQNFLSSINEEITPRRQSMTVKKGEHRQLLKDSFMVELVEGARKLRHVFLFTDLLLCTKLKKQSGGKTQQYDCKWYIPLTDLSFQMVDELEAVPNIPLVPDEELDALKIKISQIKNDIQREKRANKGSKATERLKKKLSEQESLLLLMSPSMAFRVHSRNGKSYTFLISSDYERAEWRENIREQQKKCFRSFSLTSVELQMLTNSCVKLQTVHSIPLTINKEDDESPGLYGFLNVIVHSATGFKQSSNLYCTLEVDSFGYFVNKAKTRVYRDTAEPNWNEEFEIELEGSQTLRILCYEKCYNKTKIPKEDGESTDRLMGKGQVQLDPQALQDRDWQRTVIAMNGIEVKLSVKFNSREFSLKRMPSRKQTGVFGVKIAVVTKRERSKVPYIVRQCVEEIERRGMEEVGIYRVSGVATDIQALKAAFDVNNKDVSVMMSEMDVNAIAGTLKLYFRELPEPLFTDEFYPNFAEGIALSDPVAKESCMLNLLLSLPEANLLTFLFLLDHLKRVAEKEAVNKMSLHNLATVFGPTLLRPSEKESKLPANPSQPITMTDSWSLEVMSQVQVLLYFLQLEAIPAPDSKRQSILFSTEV

For `C#CCOc1cc(CNC(=O)c2cc(F)ccc2N2CCOCC2)ccc1OC`, the Activity [1] was “Non-toxic”, the Activity (K562 [2]) was 8.97% and the Activity (Tubulin (Homo sapiens) [3]) was “Active”. The Activity (K562 [4]) was 27.82%, the inhibition (Tubulin (Homo sapiens) [5]) was “Active” and the viability at 0.08 µM (K562 [6]) was 92.6%. For the same compound, the Activity (Tubulin (Homo sapiens) [7]) was “Active”, the inhibition (Tubulin (Homo sapiens) [8]) was “Active” and the “Ratio IC50” value (K562 [9]) was 69.1. The IC50 (K562 [10]) was 1100 nM, the Activity (K562 [11]) was 23.78% and the Activity (K562 [12]) was 12.3%. The Activity [13] was “Non-toxic”, the Activity (K562 [14]) was 1.96% and the IC50 (H22 [15]) was 805 nM. The selectivity ratio at 72 h [16] was 66.2, the inhibition (Tubulin (Homo sapiens) [17]) was “Active” and the Activity (K562 [18]) was 8.97%. The Activity (K562 [19]) was 8.22%, the Activity (K562 [20]) was “Active” and the inhibition in vivo at 20 mg/kg (HepG2 [21]) was 63.2%. For the same compound, the Activity [22] was “Non-toxic”, the Activity [23] was “Non-toxic” and the Activity (Tubulin (Homo sapiens) [24]) was “Active”. The “Ratio IC50” value (HepG2 [25]) was 68.3, the Activity [26] was “Non-toxic” and the Activity (K562 [27]) was 29.11%. The IC50 (HepG2 [28]) was 1310 nM, the “Ratio IC50” value (H22 [29]) was 39.6 and the inhibition [30] was “Active”.
